In patent US20250341026A1, “METHODS AND MEANS FOR PREPARING A LIBRARY FOR SEQUENCING” (Illumina, Inc., priority 2018, published 2025):

Legend:
mtDNA [1] = assay: ATAC-seq reads mapped to mtDNA after contacting the sample with dye; assay type: biochemical; settings: for Effect on mitochondrial DNA reads: ATAC-seq, increasing dye concentrations (FIGS. 2A-2C); for % Mapped to mtDNA: transposition and ATAC-seq
Protocol: (§1) A sample was obtained having both nuclear DNA and mtDNA. The sample was separated into various aliquots, and each aliquot was contacted with Hoechst 33258 dye in various concentrations, including 8 μM, 80 μM, and 800 μM. Each aliquot was then subjected to transposition and ATAC-seq, and the DNA reads were analyzed.
(§2) As shown in FIGS. 2A-2C, Hoechst dye selectively stained mtDNA, preventing transposition into mtDNA, but allowing transposition of nuclear DNA. […] The methods and compositions may be used for bulk ATAC-seq or single cell ATAC-seq to inhibit, reduce, or eliminate undesired mtDNA sequencing reads.

nucleosome positioning = assay: ATAC-seq profiles (nucleosome positioning) with dyes compared to no dye control; assay type: biochemical; settings: FIG. 4; compared to the no dye control
Protocol: A sample was obtained having both nuclear DNA and mtDNA. The sample was separated into various aliquots, and each aliquot was contacted with a different dye in various concentrations. Five different dyes were used, including Hoechst (at concentrations of 50 μM, 25 μM, 12 μM, 6 μM, 3 μM, and 0.6 μM), SYBR Gold (at concentrations of 500 μM, 50 μM, 5 μM, 0.5 μM, and 0.1 μM), Sytox Orange (at concentrations of 500 μM, 50 μM, 5 μM, 0.5 μM, and 0.1 μM), PicoGreen (at concentrations of 100 μM, 10 μM, 1 μM, 0.1 μM, and 0.02 μM), and Qubit (at concentrations of 100 μM, 10 μM, 1 μM, 0.1 μM, and 0.02 μM), as shown in FIGS. 3A-3C. Another aliquot was prepared that was not exposed to any dye. Each aliquot was then subjected Nextera transposition and products were visualized on a gel. FIG. 3A depicts the gel for Hoechst and SYBR Gold. FIG. 3B depicts the gel for Sytox Orange and PicoGreen, and FIG. 3C depicts the gel for Qubit and no dye. High molecular weight DNA products are indicative of inefficient transposition.
Hoechst allows relatively unbiased ATAC-seq profiling while not changing nucleosome positioning.

gDNA (nuclear) = assay: ATAC-seq reads mapped to nuclear gDNA after contacting the sample with dye; assay type: biochemical; settings: transposition and ATAC-seq
Protocol: as §1, §2

mtDNA [2] = assay: DAPI staining of samples; assay type: binding
From the text: In addition to performing transposition and ATAC-seq, the samples were also stained. […] DAPI stained DNA, but not at certain locations.

[3] = Concentration of Hoechst 800 μM

Row | Structure (SMILES) | Effect on mitochondrial DNA reads (mtDNA [1]) | Effect on mitochondrial DNA reads (mtDNA [1]; listed as Hoechst dye) | % Mapped to mtDNA (mtDNA [1]; Concentration of Hoechst 8 μM) [%] | % Mapped to mtDNA (mtDNA [1]; Concentration of Hoechst 80 μM) [%] | % Mapped to mtDNA (mtDNA [1]; [3]) [%] | Effect on ATAC-seq profiles (nucleosome positioning) (nucleosome positioning) | % Mapped to gDNA (nuclear) (gDNA (nuclear); Concentration of Hoechst 8 μM) [%] | % Mapped to gDNA (nuclear) (gDNA (nuclear); Concentration of Hoechst 80 μM) [%] | % Mapped to gDNA (nuclear) (gDNA (nuclear); [3]) [%] | Staining of mtDNA versus actively transcribed regions of nuclear DNA (mtDNA [2])
1 | CN1CCN(c2ccc3[nH]c(-c4ccc5[nH]c(-c6ccc(O)cc6)nc5c4)nc3c2)CC1 [Hoechst, Hoechst 33258] | reduces mitochondrial DNA reads | decreasing mtDNA reads | 32 | 11 | 0 | does not alter the ATAC-seq profiles | 68 | 89 | 100 | 
2 | N=C(N)c1ccc(-c2cc3ccc(C(=N)N)cc3[nH]2)cc1 [DAPI, 4′, 6-diamidino-2-phenylindole] |  |  |  |  |  |  |  |  |  | staining of mtDNA took place but not of actively transcribed (ATAC) regions of nuclear DNA
